According to US8461328B2, “Tricyclic heterocyclic compounds, compositions and methods of use thereof” (Genentech, Inc., priority 2010, dated 2013):
Structures can show the parent of a compound that is named as a salt.

Tests used:
Assay type in all cases: biochemical
JAK1 = target: T1, JAK1 (Homo sapiens, UniProt P23458); assay: JAK1 inhibition (Table 4); settings: read-out: JAK1 Ki
T1 construct: made in house; host or cells: SF9 insect cells (baculovirus)

JAK2 = target: T2, JAK2 (Homo sapiens, UniProt O60674); assay: JAK2 inhibition (Table 4); settings: read-out: JAK2 Ki
T2 construct: made in house; host or cells: SF9 insect cells (baculovirus)
T2 sequence (O60674 812-1132): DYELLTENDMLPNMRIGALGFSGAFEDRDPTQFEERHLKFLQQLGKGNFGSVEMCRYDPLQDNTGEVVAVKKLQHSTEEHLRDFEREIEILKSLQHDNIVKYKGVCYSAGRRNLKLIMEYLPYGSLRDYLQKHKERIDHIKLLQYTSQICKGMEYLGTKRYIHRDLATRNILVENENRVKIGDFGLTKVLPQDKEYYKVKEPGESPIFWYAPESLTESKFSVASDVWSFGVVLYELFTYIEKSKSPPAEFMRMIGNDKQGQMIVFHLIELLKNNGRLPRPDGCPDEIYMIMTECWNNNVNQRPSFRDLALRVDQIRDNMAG

JAK3 = target: T3, JAK3 (Homo sapiens, UniProt P52333); assay: JAK3 inhibition (Table 4); settings: read-out: JAK3 Ki
T3 construct: made in house; host or cells: SF9 insect cells (baculovirus)
T3 sequence (P52333 783-1124): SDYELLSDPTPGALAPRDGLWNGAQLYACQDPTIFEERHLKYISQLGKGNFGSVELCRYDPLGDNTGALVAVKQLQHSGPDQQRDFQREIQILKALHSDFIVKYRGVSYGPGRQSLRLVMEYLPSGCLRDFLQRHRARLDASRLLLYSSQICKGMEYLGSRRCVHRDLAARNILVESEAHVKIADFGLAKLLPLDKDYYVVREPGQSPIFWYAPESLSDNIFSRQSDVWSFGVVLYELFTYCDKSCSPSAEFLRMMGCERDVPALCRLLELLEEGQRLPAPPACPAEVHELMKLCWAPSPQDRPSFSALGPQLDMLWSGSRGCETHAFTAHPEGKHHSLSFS

TYK2 = target: T4, TYK2 (Homo sapiens, UniProt P29597); assay: TYK2 inhibition (Table 4)
T4 construct: made in house; host or cells: SF9 insect cells (baculovirus)
T4 sequence (P29597 873-1187): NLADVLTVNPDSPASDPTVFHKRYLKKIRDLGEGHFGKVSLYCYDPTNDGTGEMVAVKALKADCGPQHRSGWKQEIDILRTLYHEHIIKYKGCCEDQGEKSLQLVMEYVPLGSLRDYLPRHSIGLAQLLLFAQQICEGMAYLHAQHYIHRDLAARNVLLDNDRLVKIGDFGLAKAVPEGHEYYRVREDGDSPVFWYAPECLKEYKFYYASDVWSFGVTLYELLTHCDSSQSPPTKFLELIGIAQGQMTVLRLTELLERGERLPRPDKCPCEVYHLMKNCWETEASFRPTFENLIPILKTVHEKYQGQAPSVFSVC

T1 sequence (P23458 852-1154): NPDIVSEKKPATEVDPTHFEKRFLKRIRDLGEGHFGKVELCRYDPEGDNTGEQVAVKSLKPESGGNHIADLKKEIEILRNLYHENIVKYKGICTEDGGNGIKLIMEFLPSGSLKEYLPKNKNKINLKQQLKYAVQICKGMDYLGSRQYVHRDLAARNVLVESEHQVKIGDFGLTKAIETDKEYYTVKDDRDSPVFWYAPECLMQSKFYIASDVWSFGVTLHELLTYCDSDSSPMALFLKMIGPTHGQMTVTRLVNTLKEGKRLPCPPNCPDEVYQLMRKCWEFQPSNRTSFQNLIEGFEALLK

SMILES	Ki (JAK1) [nM]	Ki (JAK2) [nM]	Ki (JAK3) [nM]	Ki (TYK2) [nM]
C[C@@H](O)c1nc2cnc3[nH]ccc3c2n1C1CCN(C2COC2)CC1 [Example 832, (R)-1-[1-(1-Oxetan-3-yl-piperidin-4-yl)-1,6-dihydro-1,3,5,6-tetraaza-as-indacen-2-yl]-ethanol]	55.5	428	516	493
COCCN(C)C(=O)NC1CCC(n2cnc3cnc4[nH]ccc4c32)CC1 (stereo not drawn) [Example 763, 1-(2-Methoxy-ethyl)-1-methyl-3-[4-(6H-1,3,5,6-tetraaza-as-indacen-1-yl)-cyclohexyl]-urea]	12.5	42.2	278	223
CCC(C)Cc1nc2cnc3[nH]ccc3c2n1C1CCN(CCC#N)CC1 (racemic) [Example 122, 3-{4-[2-(2-Methyl-butyl)-6H-1,2,3,5,6-tetraaza-as-indacen-1-yl]-piperidin-1-yl}-propionitrile]	62.3	281	83.4	1050
N#CCCN1CCC(n2c(CC3CCCO3)nc3cnc4[nH]ccc4c32)CC1 (stereo not drawn) [Example 813, 3-{4-[2-(Tetrahydro-furan-2-ylmethyl)-6H-1,3,5,6-tetraaza-as-indacen-1-yl]-piperidin-1-yl}-propionitrile]	21.1	43	39.9	365
N#CCCN1CCC(n2c(CNC(=O)c3ccccc3F)nc3cnc4[nH]ccc4c32)CC1 [Example 501, N-{1-[1-(2-Cyano-ethyl)-piperidin-4-yl]-1,6-dihydro-1,3,5,6-tetraaza-as-indacen-2-ylmethyl}-2-fluoro-benzamide]	3.93	12	12.2	56.4
CC(O)c1nc2cnc3[nH]ccc3c2n1C1CC2CCC1O2 (single isomer, unassigned) [Example 907, (o)-1-[1-(7-Oxa-bicyclo[2.2.1]hept-2-yl)-1,6-dihydro-1,3,5,6-tetraaza-as-indacen-2-yl]-ethanol]	24	142	195	76.9
N#CCCN1CCC(n2c(CCn3cccn3)nc3cnc4[nH]ccc4c32)CC1 [Example 414, 3-{4-[2-(2-Pyrazol-1-yl-ethyl)-6H-1,3,5,6-tetraaza-as-indacen-1-yl]-piperidin-1-yl}-propionitrile]	17.6	55.7	155	137
C[C@@H](O)c1nc2cnc3[nH]ccc3c2n1[C@@H]1CCCN(C(=O)C2CC2)C1 [Example 794, Cyclopropyl-{(R)-3-[2-((R)-1-hydroxy-ethyl)-6H-1,3,5,6-tetraaza-as-indacen-1-yl]-piperidin-1-yl}-methanone]	116	886	1230	420
CC(O)c1nc2cnc3[nH]ccc3c2n1C1CC2CCC1O2 (stereo not drawn) [Example 938, 1-[1-(7-Oxa-bicyclo[2.2.1]hept-2-yl)-1,6-dihydro-1,3,5,6-tetraaza-as-indacen-2-yl]-ethanol]	88.3	263	119	175
O=C(Cc1nc2cnc3[nH]ccc3c2n1C1CCNCC1)NC1CCCC1 [Example 265, N-Cyclopentyl-2-(1-piperidin-4-yl-1,6-dihydro-1,3,5,6-tetraaza-as-indacen-2-yl)-acetamide]	29.7	406	66.1	570
Cc1nc2cnc3[nH]ccc3c2n1[C@@H]1C[C@H]2CC[C@@H](C1)N2Cc1ccccc1 [Example 271, 1-(8-Benzyl-8-aza-bicyclo[3.2.1]oct-3-yl)-2-methyl-1,6-dihydro-1,3,5,6-tetraaza-as-indacene]	17.4	12.4	60.4	302
Cc1nc2cnc3[nH]ccc3c2n1C1(C)CCN(Cc2ccnc(C#N)c2)CC1 [Example 758, 4-[4-Methyl-4-(2-methyl-6H-1,3,5,6-tetraaza-as-indacen-1-yl)-piperidin-1-ylmethyl]-pyridine-2-carbonitrile]	40.8	205	598	1010
CC1(n2cnc3cnc4[nH]ccc4c32)CCN(C(=O)CC#N)CC1 [Example 579, 3-[4-Methyl-4-(6H-1,2,3,5,6-tetraaza-as-indacen-1-yl)-piperidin-1-yl]-3-oxo-propionitrile]	106	483	1360	329
Cc1nc2cnc3[nH]ccc3c2n1[C@H]1CC[C@H](N2CCNC2=O)CC1 [Example 598, Trans 1-[4-(2-methyl-6H-1,2,3,5,6-tetraaza-as-indacen-1-yl)-cyclohexyl]-imidazolidin-2-one formic acid salt]	7.31	8.34	12.1	45.5
Cc1nc2cnc3[nH]ccc3c2n1[C@@H]1CCC[C@@](C)(O)C1 [Example 892, (1R,3R)-1-Methyl-3-(2-methyl-6H-1,3,5,6-tetraaza-as-indacen-1-yl)-cyclohexanol]	82.1	145	130	114
O=C(Cc1nc2cnc3[nH]ccc3c2n1C1CCCOC1)N1CCS(=O)(=O)CC1 (racemic) [Example 979, 1-(1,1-Dioxo-1$1%6&-thiomorpholin-4-yl)-2-[1-(tetrahydro-pyran-3-yl)-1,6-dihydro-1,3,5,6-tetraaza-as-indacen-2-yl]-ethanone]	15.5	238	127	113
OCCOc1nc2cnc3[nH]ccc3c2n1C1CCCOC1 (racemic) [Example 780, 2-[1-(Tetrahydro-pyran-3-yl)-1,6-dihydro-1,3,5,6-tetraaza-as-indacen-2-yloxy]-ethanol]	15.8	41.2	74.2	109
O=C([C@@H]1COCCN1)N1CCC(n2cnc3cnc4[nH]ccc4c32)CC1 [Example 455, (S)-Morpholin-3-yl-[4-(6H-1,3,5,6-tetraaza-as-indacen-1-yl)-piperidin-1-yl]-methanone]	18.5	78.5	514	262
CC(C)(C)OC(=O)N1CC(c2nc3cnc4[nH]ccc4c3n2C2CCN(Cc3ccccc3)CC2)C1 [Example 161, 3-[1-(1-Benzyl-piperidin-4-yl)-1,6-dihydro-1,2,3,5,6-tetraaza-as-indacen-2-yl]azetidine-1-carboxylic acid tert-butyl ester]	11.6	31.8	20.5	386
N#Cc1cccc(S(=O)(=O)N2CCC(n3cnc4cnc5[nH]ccc5c43)CC2)c1 [Example 73, 3-[4-(6H-1,3,5,6-Tetraaza-as-indacen-1-yl)-piperidine-1-sulfonyl]benzonitrile]	0.91	0.95	57.7	6.82
O=C(Cc1nc2cnc3[nH]ccc3c2n1C1CCCOC1)NC1CCC(F)(F)CC1 (racemic) [Example 972, N-(4,4-Difluoro-cyclohexyl)-2-[1-(tetrahydro-pyran-3-yl)-1,6-dihydro-1,3,5,6-tetraaza-as-indacen-2-yl]-acetamide]	27.6	113	89.1	194
CCC(COC)n1c(C(C)O)nc2cnc3[nH]ccc3c21 (single isomer, unassigned) [Example 182a, 1-[1-(1-Methoxymethyl-propyl)-1,6-dihydro-1,2,3,5,6-tetraaza-as-indacen-2-yl]-ethanol]	291	888	351	3180
CC(C)(C)OC(=O)NC1CCCC(n2cnc3cnc4[nH]ccc4c32)C1 (single isomer, unassigned) [Example 476, [3-(6H-1,3,5,6-Tetraaza-as-indacen-1-yl)-cyclohexyl]-carbamic acid tert-butyl ester]	12.3	29.1	68.4	302
N#C[C@H]1CC[C@H](n2c(CO)nc3cnc4[nH]ccc4c32)CC1 [Example 642, Trans 4-(2-hydroxymethyl-6H-1,2,3,5,6-tetraaza-as-indacen-1-yl)cyclohexane carbonitrile]	2.06	20.9	185	7.22
c1ccc(CN2CCC(n3c(Cn4cccn4)nc4cnc5[nH]ccc5c43)CC2)cc1 [Example 201, 1-(1-Benzyl-piperidin-4-yl)-2-pyrazol-1-ylmethyl-1,6-dihydro-1,2,3,5,6-tetraaza-as-indacene]	7.28	25	12.2	488
COCCN(C)C(=O)NC1CCC(n2c(C)nc3cnc4[nH]ccc4c32)C1 (racemic) [Example 738, 1-(2-Methoxy-ethyl)-1-methyl-3-[3-(2-methyl-6H-1,3,5,6-tetraaza-as-indacen-1-yl)-cyclopentyl]-urea]	11.6	49.1	80.9	351
C[C@@H](O)c1nc2cnc3[nH]ccc3c2n1C1CCN(Cc2ncco2)CC1 [Example 923, (R)-1-[1-(1-Oxazol-2-ylmethyl-piperidin-4-yl)-1,6-dihydro-1,3,5,6-tetraaza-as-indacen-2-yl]-ethanol]	17.1	150	37.4	363
